Experimental findings from patent publication US9963464B2, “Macrocyclic compounds” (Bayer Pharma Aktiengesellschaft, priority 2014, dated 2018) are described below.

In series [1] the target is T1, human PTEFb (CDK9/Cyclin T1) (Homo sapiens, UniProt P50750).
T1 construct: purchased ProQinase, Freiburg, Germany
In words: Surface plasmon resonance PTEFb. It counts as binding. The settings on record: SPR; for koff: read-out: Dissociation rate constant koff; for Target resident time: 1/koff. The source says: 8. Surface Plasmon Resonance PTEFb
The term “surface plasmon resonance”, as used herein, refers to an optical phenomenon that allows for the analysis of the reversible associations of biological molecules in real time within a biosensor matrix, for example using the Biacore® system (GE Healthcare Biosciences, Uppsala, Sweden). Biacore® uses the optical properties of surface plasmon resonance (SPR) to detect alterations in the refractive index of a buffer, which changes as molecules in solution interact with the target immobilized on the surface. In brief, proteins are covalently bound to the dextran matrix at a known concentration and a ligand for the protein is injected through the dextran matrix. Near infrared light, directed onto the opposite side of the sensor chip surface is reflected and also induces an evanescent wave in the gold film, which in turn, causes an intensity dip in the reflected light at a particular angle known as the resonance angle. If the refractive index of the sensor chip surface is altered (e.g. by compound binding to the bound protein) a shift occurs in the resonance angle. This angle shift can be measured.
The term “KD”, as used herein, is intended to refer to the equilibrium dissociation constant of a particular compound/target protein complex.
The term “koff”, as used herein, is intended to refer to the off-rate, i.e. the dissociation rate constant of a particular compound/target protein complex.
The term “target residence time”, as used herein, is intended to refer to the inverse of the rate of dissociation rate constant (1/koff) of a particular compound/target protein complex.
The ability of the compounds according to the invention to bind human PTEFb may be determined using surface plasmon resonance (SPR). KD values and koff values may be measured using a Biacore® T200 instrument (GE Healthcare, Uppsala, Sweden).
For SPR measurements, recombinant human PTEFb (CDK9/Cyclin T1 recombinant human active protein kinase purchased from ProQinase, Freiburg, Germany) is immobilized using standard amine coupling (Johnsson B et al, Anal Biochem. 1991 Nov. 1; 198(2):268-77). Briefly, carboxymethylated dextran biosensor chips (CM7, GE Healthcare) are activated with N-ethyl-N′-(3-dimethylaminopropyl)-carbodiimide hydrochloride (EDC) and N-hydroxysuccinimide (NHS) according to the supplier's instructions. Human PTEFb is diluted in 1×HBS-EP+(GE Healthcare) into 30 μg/ml and injected on the activated chip surface. Subsequently, a 1:1 solution of 1 M ethanolamine-HCl (GE Healthcare) and 1×HBS-EP is injected to block unreacted groups, resulting in approximately 4000 response units (RU) of immobilized protein. A reference surface is generated by treatment with NHS-EDC and ethanolamine-HCl. Compounds are dissolved in 100% dimethylsulfoxide (DMSO, Sigma-Aldrich, Germany) to a concentration of 10 mM and subsequently diluted in running buffer (1×HBS-EP+pH 7.4 [generated from HBS-EP+Buffer 10× (GE Healthcare): 0.1 M HEPES, 1.5 M NaCl, 30 mM EDTA and 0.5% v/v Surfactant P20], 1% v/v DMSO). For kinetic measurements, four-fold serial dilutions of compound (0.39 nM to 100 nM) are injected over immobilized protein. Binding kinetics is measured at 25° C. with a flow rate of 50 μl/min in running buffer. Compound concentrations are injected for 60 s followed by a dissociation time of 1800 s. The resulting sensorgrams are double-referenced against the reference surface as well as against blank injections.
The double-referenced sensorgrams are fit to a simple reversible Langmuir 1:1 reaction mechanism as implemented in the Biacore® T200 evaluation software 2.0 (GE Healthcare). In cases were full compound dissociation has not occurred at the end of the dissociation phase, the Rmax parameter (response at saturation) is fit as local variable. In all other cases, Rmax is fit as global variable.

Another series is described as follows: Caco-2 permeation assay. The settings on record: human, pH 7.2, Caco-2 monolayer, 2 μM test compound; for Papp A→B at 2 h, 2 μM: read-out: Papp A-B (Mari); for Papp B→A at 2 h, 2 μM: read-out: Papp B-A (Mari); for efflux ratio at 2 h, 2 μM: read-out: Efflux ratio (Papp B-A/Papp A-B). In kind it is in vitro ADME. As to the method:
5. Caco-2 Permeation Assay:
Caco-2 cells (purchased from DSMZ Braunschweig, Germany) were seeded at a density of 4.5×10^4 cells per well on 24 well insert plates, 0.4 μm pore size, and grown for 15 days in DMEM medium supplemented with 10% fetal bovine serum, 1% GlutaMAX (100×, GIBCO), 100 U/mL penicillin, 100 μg/mL streptomycin (GIBCO) and 1% non essential amino acids (100×). Cells were maintained at 37° C. in a humidified 5% CO2 atmosphere. Medium was changed every 2-3 day. Before running the permeation assay, the culture medium was replaced by a FCS-free hepes-carbonate transport buffer (pH 7.2). For assessment of monolayer integrity the transepithelial electrical resistance (TEER) was measured. Test compounds were predissolved in DMSO and added either to the apical or basolateral compartment in final concentration of 2 μM in transport buffer. Before and after 2 h incubation at 37° C. samples were taken from both compartments. Analysis of compound content was done after precipitation with methanol by LC/MS/MS analysis. Permeability (Papp) was calculated in the apical to basolateral (A→B) and basolateral to apical (B→A) directions. The apparent permeability was calculated using following equation: Papp=(Vr/Po)(1/S)(P2/t) Where Vr is the volume of medium in the receiver chamber, Po is the measured peak area or height of the test drug in the donor chamber at t=o, S the surface area of the monolayer, P2 is the measured peak area of the test drug in the acceptor chamber after 2 h of incubation, and t is the incubation time. The efflux ratio basolateral (B) to apical (A) was calculated by dividing the Papp B-A by the Papp A-B. In addition the compound recovery was calculated.

The mark [2] stands for this setting: 25° C., below 5E-5 s^-1 not resolvable.

Bounds are passed on as bounds.

T1 sequence (P50750 whole entry): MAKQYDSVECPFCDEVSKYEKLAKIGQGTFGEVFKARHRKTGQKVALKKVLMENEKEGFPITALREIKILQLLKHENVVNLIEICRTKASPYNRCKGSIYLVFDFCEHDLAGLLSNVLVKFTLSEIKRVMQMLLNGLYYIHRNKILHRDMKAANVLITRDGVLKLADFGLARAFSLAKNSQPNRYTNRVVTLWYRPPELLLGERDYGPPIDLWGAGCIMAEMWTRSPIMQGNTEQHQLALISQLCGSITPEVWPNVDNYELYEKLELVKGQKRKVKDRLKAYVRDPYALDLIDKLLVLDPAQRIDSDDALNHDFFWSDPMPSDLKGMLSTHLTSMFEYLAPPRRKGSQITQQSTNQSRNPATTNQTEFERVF
T1 sequence (O60563 whole entry partner): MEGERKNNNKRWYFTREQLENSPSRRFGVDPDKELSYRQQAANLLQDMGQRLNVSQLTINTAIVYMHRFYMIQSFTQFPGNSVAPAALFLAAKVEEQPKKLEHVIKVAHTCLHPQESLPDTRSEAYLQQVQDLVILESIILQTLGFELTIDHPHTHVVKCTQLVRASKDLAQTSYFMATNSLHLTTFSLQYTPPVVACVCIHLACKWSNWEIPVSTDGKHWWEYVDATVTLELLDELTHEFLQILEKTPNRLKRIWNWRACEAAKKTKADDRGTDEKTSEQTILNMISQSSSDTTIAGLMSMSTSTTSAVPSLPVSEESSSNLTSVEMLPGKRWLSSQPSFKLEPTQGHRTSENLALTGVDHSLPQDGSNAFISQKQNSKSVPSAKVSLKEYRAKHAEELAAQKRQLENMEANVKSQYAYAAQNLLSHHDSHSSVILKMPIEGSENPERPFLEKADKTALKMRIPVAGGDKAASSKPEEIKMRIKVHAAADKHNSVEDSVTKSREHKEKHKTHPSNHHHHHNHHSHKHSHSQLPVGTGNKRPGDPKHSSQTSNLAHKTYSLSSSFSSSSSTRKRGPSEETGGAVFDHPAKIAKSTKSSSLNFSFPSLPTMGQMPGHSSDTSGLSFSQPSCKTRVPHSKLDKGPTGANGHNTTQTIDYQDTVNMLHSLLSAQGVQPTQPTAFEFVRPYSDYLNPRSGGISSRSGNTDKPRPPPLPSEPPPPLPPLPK

For orientation: koff means the first-order rate constant of dissociation. As to `C[S+]([O-])Cc1cc2nc(c1)OCCCOc1cc(F)ccc1-c1cc(ncc1F)N2` (racemic) [Example 4, (rac)-15,19-Difluoro-8-[(methylsulfinyl)methyl]-3,4-dihydro-2H,11H-10,6-(azeno)-12,16-(metheno)-1,5,11,13-benzodioxadiazacyclooctadecine], in series [1] (setting [2]), the koff is under 5e-05 s⁻¹. The Target resident time in series [1] was over 333 min.
Regarding `C[S+]([O-])Cc1cc2nc(c1)OCCOc1cc(F)ccc1-c1cc(ncc1F)N2` (racemic) [Example 10, (rac)-14,18-difluoro-7-[(methylsulfinyl)methyl]-2,3-dihydro-10H-9,5-(azeno)-11,15-(metheno)-1,4,10,12-benzodioxadiazacycloheptadecine], the koff in series [1] (setting [2]) came out at 0.00245 s⁻¹. For the same compound, the Target resident time in series [1] worked out at 6.8 min.
On the same counts, the results for `CS(=N)(=O)Cc1cc2nc(c1)OCCOc1cc(F)ccc1-c1cc(ncc1F)N2` (racemic) [Example 11, (rac)-14,18-difluoro-7-[(S-methylsulfonimidoyl)methyl]-2,3-dihydro-10H-9,5-(azeno)-11,15-(metheno)-1,4,10,12-benzodioxadiazacycloheptadecine] are 0.0029 s⁻¹ and 5.7 min.
As for `C[S+]([O-])Cc1cc2nc(c1)OCCCCOc1cc(F)ccc1-c1cc(ncc1F)N2` (racemic) [Example 13, (rac)-16,20-difluoro-9-[(methylsulfinyl)methyl]-2,3,4,5-tetrahydro-12H-11,7-(azeno)-13,17-(metheno)-1,6,12,14-benzodioxadiazacyclononadecine], in series [1] (setting [2]), the koff was under 5e-05 s⁻¹. Besides, in series [1], the Target resident time is over 333 min.
Turning to `CS(=N)(=O)Cc1cc2nc(c1)OCCCCOc1cc(F)ccc1-c1cc(ncc1F)N2` (racemic) [Example 14, (rac)-16,20-difluoro-9-[(S-methylsulfonimidoyl)methyl]-2,3,4,5-tetrahydro-12H-11,7-(azeno)-13,17-(metheno)-1,6,12,14-benzodioxadiazacyclononadecine], in series [1] (setting [2]), the koff was under 5e-05 s⁻¹. Besides, the Target resident time in series [1] is given as over 333 min.
`CS(=O)(Cc1cc2cc(c1)OCCCOc1cc(F)ccc1-c1nc(ncc1F)N2)=NC(=O)C(F)(F)F` (racemic) [Example 16, (rac)-N-[{[15,19-difluoro-3,4-dihydro-2H,11H-12,16-(azeno)-10,6-(metheno)-1,5,11,13-benzodioxadiazacyclooctadecin-8-yl]methyl}(methyl)oxido-λ^6-sulfanylidene]-2,2,2-trifluoroacetamide]: the koff in series [1] (setting [2]) was under 5e-05 s⁻¹. Also, the Target resident time in series [1] is reported as over 333 min.
The term Papp A→B denotes how fast a substance crosses the layer from the apical side. As usually defined, the Papp B→A is the apparent permeability from the basolateral to the apical side of a cell layer. For the compound `CCNC(=O)N=S(C)(=O)Cc1cc2nc(c1)OCCCOc1cc(F)ccc1-c1cc(ncc1F)N2` (racemic) [Example 17, (rac)-1-[{[15,19-difluoro-3,4-dihydro-2H,11H-10,6-(azeno)-12,16-(metheno)-1,5,11,13-benzodioxadiazacyclooctadecin-8-yl]methyl}(methyl)oxido-λ^6-sulfanylidene]-3-ethylurea], in “Caco-2 permeation assay”, the Papp A→B at 2 h, 2 μM amounted to 8.7 ×10⁻⁶ cm/s; the Papp B→A at 2 h, 2 μM was 8.8 ×10⁻⁶ cm/s; the efflux ratio at 2 h, 2 μM is 1.
With `CS(=O)(=O)N=S(C)(=O)Cc1cc2nc(c1)OCCCOc1cc(F)ccc1-c1cc(ncc1F)N2` (racemic) [Example 22, (rac)-N-[{[15,19-difluoro-3,4-dihydro-2H,11H-10,6-(azeno)-12,16-(metheno)-1,5,11,13-benzodioxadiazacyclooctadecin-8-yl]methyl}(methyl)oxido-λ^6-sulfanylidene]methanesulfonamide], in “Caco-2 permeation assay”, the Papp A→B at 2 h, 2 μM is 8.2 ×10⁻⁶ cm/s; the Papp B→A at 2 h, 2 μM is 12.6 ×10⁻⁶ cm/s; the efflux ratio at 2 h, 2 μM came to 1.5.
On the same counts, the results for `CS(=O)(Cc1cc2nc(c1)OCCCOc1cc(F)ccc1-c1cc(ncc1F)N2)=NS(=O)(=O)CCN` (racemic) [Example 23, (rac)-2-amino-N-[{[15,19-difluoro-3,4-dihydro-2H,11H-10,6-(azeno)-12,16-(metheno)-1,5,11,13-benzodioxadiazacyclooctadecin-8-yl]methyl}(methyl)oxido-λ^6-sulfanylidene]ethanesulfonamide] are 0.6 ×10⁻⁶ cm/s, 44.2 ×10⁻⁶ cm/s and 69.7.
For the compound `CS(=N)(=O)Cc1cc2nc(c1)OCCCOc1cc(F)ccc1-c1cc(ncc1F)N2` (single isomer, unassigned; enantiomer 1) [Example 6, 15,19-Difluoro-8-[(S-methylsulfonimidoyl)methyl]-3,4-dihydro-2H,11H-10,6-(azeno)-12,16-(metheno)-1,5,11,13-benzodioxadiazacyclooctadecine; Enantiomer 1], the koff in series [1] (setting [2]) was under 5e-05 s⁻¹. The Target resident time in series [1] is over 333 min.
On to `CS(=N)(=O)Cc1cc2nc(c1)OCCCOc1cc(F)ccc1-c1cc(ncc1F)N2` (single isomer, unassigned; enantiomer 2) [Example 7, 15,19-Difluoro-8-[(S-methylsulfonimidoyl)methyl]-3,4-dihydro-2H,11H-10,6-(azeno)-12,16-(metheno)-1,5,11,13-benzodioxadiazacyclooctadecine; Enantiomer 2], for which the Dissociation rate constant koff in series [1] (setting [2]) was under 5e-05 s⁻¹. This compound also showed a Target resident time in series [1] of over 333 min.
Regarding `CSCc1cc2nc(c1)OCCCOc1cc(F)ccc1-c1cc(ncc1F)N2` [Example 3, 15,19-Difluoro-8-[(methylsulfanyl)methyl]-3,4-dihydro-2H,11H-10,6-(azeno)-12,16-(metheno)-1,5,11,13-benzodioxadiazacyclooctadecine], the off-rate constant (koff) in series [1] (setting [2]) is under 5e-05 s⁻¹. This compound also had a Target resident time in series [1] of over 333 min.
Consider `CSCc1cc2nc(c1)OCCOc1cc(F)ccc1-c1cc(ncc1F)N2` [Example 9, 14,18-Difluoro-7-[(methylsulfanyl)methyl]-2,3-dihydro-10H-9,5-(azeno)-11,15-(metheno)-1,4,10,12-benzodioxadiazacycloheptadecine], for which the koff in series [1] (setting [2]) was 0.00024 s⁻¹. This compound yielded a Target resident time in series [1] of 69.4 min.
With `CSCc1cc2nc(c1)OCCCCOc1cc(F)ccc1-c1cc(ncc1F)N2` [Example 12, 16,20-Difluoro-9-[(methylsulfanyl)methyl]-2,3,4,5-tetrahydro-12H-11,7-(azeno)-13,17-(metheno)-1,6,12,14-benzodioxadiazacyclononadecine], the off-rate (koff) in series [1] (setting [2]) was under 5e-05 s⁻¹. In series [1], this compound yielded a Target resident time of over 333 min.
